Several values for one entry are separate records, joined by “and”; a condition that tells them apart may be missing. Equal values may be shown once. Inconclusive results and toxic doses are left out.
System: B6C3F1 mice, Lewis lung carcinoma iv, survival T/C
Test: NCI In Vivo Anticancer Drug Screen. Data for tumor model Lewis Lung Carcinoma (intravenous) in B6C3F1 mice
Conditions: endpoint: median survival time, higher = longer survival
Procedure, shortened: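 Transplantable tumor in mice; compound treated vs vehicle controls; read-out survival; value = treated/control (T/C).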

[1] = dose: 12.5 mg/kg/injection, schedule: Q01DX009 (ip), vehicle: saline with Tween-80
[2] = dose: 25.0 mg/kg/injection, schedule: Q01DX009 (ip), vehicle: saline with Tween-80
[3] = dose: 50.0 mg/kg/injection, schedule: Q01DX009 (ip), vehicle: saline with Tween-80
[4] = dose: 100.0 mg/kg/injection, schedule: Q01DX009 (ip), vehicle: saline with Tween-80
[5] = dose: 200.0 mg/kg/injection, schedule: Q01DX009 (ip), vehicle: saline with Tween-80
[6] = dose: 25.0 mg/kg/injection, schedule: Q01DX009 (ip), vehicle: saline
[7] = dose: 50.0 mg/kg/injection, schedule: Q01DX009 (ip), vehicle: saline
[8] = dose: 100.0 mg/kg/injection, schedule: Q01DX009 (ip), vehicle: saline
[9] = dose: 200.0 mg/kg/injection, schedule: Q01DX009 (ip), vehicle: saline
[10] = dose: 400.0 mg/kg/injection, schedule: Q01DX009 (ip), vehicle: saline
[11] = dose: 12.5 mg/kg/injection, schedule: Q01DX009 (ip), vehicle: saline
[12] = dose: 3.12 mg/kg/injection, schedule: Q01DX009 (ip), vehicle: saline with Tween-80
[13] = dose: 6.25 mg/kg/injection, schedule: Q01DX009 (ip), vehicle: saline with Tween-80
[14] = dose: 50.0 mg/kg/injection, schedule: Q01DX009 (ip), vehicle: Klucel (hydroxypropylcellulose) (HPC)
[15] = dose: 100.0 mg/kg/injection, schedule: Q01DX009 (ip), vehicle: Klucel (hydroxypropylcellulose) (HPC)
[16] = dose: 400.0 mg/kg/injection, schedule: Q01DX009 (ip), vehicle: Klucel (hydroxypropylcellulose) (HPC)
[17] = dose: 25.0 mg/kg/injection, schedule: Q01DX009 (ip), vehicle: Klucel (hydroxypropylcellulose) (HPC)
[18] = dose: 200.0 mg/kg/injection, schedule: Q01DX009 (ip), vehicle: Klucel (hydroxypropylcellulose) (HPC)
[19] = dose: 6.25 mg/kg/injection, schedule: Q01DX009 (ip), vehicle: Klucel (hydroxypropylcellulose) (HPC)
[20] = dose: 12.5 mg/kg/injection, schedule: Q01DX009 (ip), vehicle: Klucel (hydroxypropylcellulose) (HPC)

Compound: NC(=O)c1c[se]c(C2OC(CO)C(O)C2O)n1 (stereo not given)
- T/C (dose: 0.75 mg/kg/injection, schedule: Q01DX009 (ip), vehicle: water): 107 % of control
- T/C (dose: 1.5 mg/kg/injection, schedule: Q01DX009 (ip), vehicle: water): 110 % of control
- T/C (dose: 3.0 mg/kg/injection, schedule: Q01DX009 (ip), vehicle: water): 152 % of control and 153 % of control
- T/C (dose: 6.0 mg/kg/injection, schedule: Q01DX009 (ip), vehicle: water): 297 % of control
- T/C (dose: 12.0 mg/kg/injection, schedule: Q01DX009 (ip), vehicle: water): 297 % of control and 355 % of control
- T/C (dose: 13.0 mg/kg/injection, schedule: Q01DX009 (ip), vehicle: water): 315 % of control
- T/C (dose: 24.0 mg/kg/injection, schedule: Q01DX009 (ip), vehicle: water): 297 % of control
- T/C (dose: 25.0 mg/kg/injection, schedule: Q01DX009 (ip), vehicle: water): 355 % of control
- T/C (dose: 33.0 mg/kg/injection, schedule: Q01DX009 (ip), vehicle: water): 94 % of control
- T/C (dose: 75.0 mg/kg/injection, schedule: Q01DX009 (ip), vehicle: water): 315 % of control
- T/C (dose: 100.0 mg/kg/injection, schedule: Q01DX009 (ip), vehicle: water): 120 % of control

Compound: O=c1[nH]c(=O)n(C2CC(O)C(CO)O2)cc1F (stereo not given)
- T/C (dose: 147.0 mg/kg/injection, schedule: Q04DX003 (ip), vehicle: saline): 102 % of control
- T/C (dose: 210.0 mg/kg/injection, schedule: Q04DX003 (ip), vehicle: saline): 118 % of control

Compound: COc1cccc(C2NC(=O)c3c(n[nH]c3N)S2)c1O (stereo not given)
- T/C [1]: 114 % of control
- T/C [2]: 102 % of control
- T/C [3]: 122 % of control
- T/C [4]: 99 % of control
- T/C [5]: 109 % of control

Compound: CN(C)c1ncnc2c1ncn2C1OC(CO)C(N)C1O (stereo not given)
- T/C [6]: 112 % of control

Compound: O=C(NO)c1ccc(O)c(O)c1
- T/C [6]: 100 % of control
- T/C [7]: 98 % of control
- T/C (dose: 50.0 mg/kg/injection, schedule: Q01DX009 (ip), vehicle: suspension in saline): 98 % of control
- T/C [8]: 101 % of control
- T/C (dose: 100.0 mg/kg/injection, schedule: Q01DX009 (ip), vehicle: suspension in saline): 110 % of control
- T/C [9]: 100 % of control
- T/C (dose: 200.0 mg/kg/injection, schedule: Q01DX009 (ip), vehicle: suspension in saline): 118 % of control
- T/C [10]: 158 % of control
- T/C (dose: 400.0 mg/kg/injection, schedule: Q01DX009 (ip), vehicle: suspension in saline): 124 % of control

Compound: COC(OC(CO)C(O)S(=O)(=O)O)C(O)S(=O)(=O)O (stereo not given)
- T/C [11]: 109 % of control
- T/C [6]: 106 % of control
- T/C [7]: 97 % of control
- T/C [8]: 102 % of control
- T/C [9]: 98 % of control

Compound: CCC1=C2C(=O)c3ccccc3C2=C(C)S(=O)(=O)O1
- T/C [12]: 104 % of control
- T/C [13]: 99 % of control
- T/C [1]: 97 % of control
- T/C [2]: 107 % of control

Compound: Cn1c2ccccc2c2ccc3c(c21)C(=O)C=CC3=O
- T/C (dose: 1.56 mg/kg/injection, schedule: Q01DX009 (ip), vehicle: saline with Tween-80): 99 % of control
- T/C [12]: 106 % of control
- T/C [13]: 107 % of control
- T/C [1]: 93 % of control and 101 % of control

Compound: C#C[C@]1(O)CC[C@H]2[C@@H]3CCc4cc(O)ccc4[C@H]3CC[C@@]21C
- T/C [14]: 118 % of control and 122 % of control
- T/C [15]: 113 % of control and 114 % of control
- T/C [16]: 107 % of control

Compound: CCCC(=O)O.CCCC(=O)O.CCCC(=O)O.CCCC(=O)O.[Rh].[Rh]
- T/C (dose: 0.03 mg/kg/injection, schedule: Q01DX009 (ip), vehicle: saline + alcohol): 95 % of control
- T/C (dose: 0.06 mg/kg/injection, schedule: Q01DX009 (ip), vehicle: saline + alcohol): 97 % of control and 100 % of control
- T/C (dose: 0.12 mg/kg/injection, schedule: Q01DX009 (ip), vehicle: saline + alcohol): 93 % of control and 100 % of control
- T/C (dose: 0.25 mg/kg/injection, schedule: Q01DX009 (ip), vehicle: saline + alcohol): 91 % of control and 102 % of control
- T/C (dose: 0.5 mg/kg/injection, schedule: Q01DX009 (ip), vehicle: saline + alcohol): 92 % of control and 97 % of control
- T/C (dose: 1.0 mg/kg/injection, schedule: Q01DX009 (ip), vehicle: saline + alcohol): 91 % of control and 96 % of control

Compound: Cc1ccc(N)c(N)c1
- T/C [2]: 96 % of control
- T/C [3]: 98 % of control
- T/C [4]: 108 % of control
- T/C [5]: 103 % of control

Compound: Cc1ncc([N+](=O)[O-])n1CCSC(N)=O
- T/C [11]: 107 % of control
- T/C [6]: 102 % of control
- T/C [7]: 110 % of control
- T/C [8]: 95 % of control
- T/C [9]: 106 % of control
- T/C [10]: 97 % of control

Compound: Clc1ccc(C2SC=Cc3ccccc32)cc1 (stereo not given)
- T/C [17]: 115 % of control
- T/C [14]: 114 % of control
- T/C [15]: 110 % of control
- T/C [18]: 107 % of control
- T/C [16]: 105 % of control

Compound: O=C(O)CSc1c(Cl)c(=O)oc2ccc(Cl)cc12
- T/C [19]: 93 % of control
- T/C [20]: 93 % of control
- T/C [17]: 94 % of control
- T/C [14]: 98 % of control
- T/C [15]: 98 % of control

Compound: CCC1CC2CN(CCc3c([nH]c4ccccc34)C(C(=O)OC)(c3cc4c(cc3OC)N(C)C3C(O)(C(=O)OC)C(OC(C)=O)C5(CC)C=CCN6CCC43C65)C2)C1 (stereo not given)
- T/C (dose: 0.06 mg/kg/injection, schedule: Q01DX009 (ip), vehicle: suspension in saline): 103 % of control
- T/C (dose: 0.12 mg/kg/injection, schedule: Q01DX009 (ip), vehicle: suspension in saline): 102 % of control
- T/C (dose: 0.25 mg/kg/injection, schedule: Q01DX009 (ip), vehicle: suspension in saline): 108 % of control
- T/C (dose: 0.5 mg/kg/injection, schedule: Q01DX009 (ip), vehicle: suspension in saline): 103 % of control
- T/C (dose: 1.0 mg/kg/injection, schedule: Q01DX009 (ip), vehicle: suspension in saline): 112 % of control
- T/C (dose: 2.0 mg/kg/injection, schedule: Q01DX009 (ip), vehicle: suspension in saline): 102 % of control

Compound: c1cc(-c2cc3ccc(C4=NCCN4)cc3[nH]2)ccc1C1=NCCN1
- T/C (dose: 3.12 mg/kg/injection, schedule: Q01DX009 (ip), vehicle: suspension in saline): 100 % of control
- T/C (dose: 6.25 mg/kg/injection, schedule: Q01DX009 (ip), vehicle: suspension in saline): 120 % of control
- T/C (dose: 12.5 mg/kg/injection, schedule: Q01DX009 (ip), vehicle: suspension in saline): 115 % of control
- T/C (dose: 25.0 mg/kg/injection, schedule: Q01DX009 (ip), vehicle: suspension in saline): 111 % of control

Compound: O=CC=O
- T/C [13]: 102 % of control
- T/C [1]: 116 % of control
- T/C [2]: 107 % of control
- T/C [3]: 107 % of control
- T/C [4]: 95 % of control
- T/C [5]: 101 % of control

Compound: NC(=O)c1ncn2c(=O)n(CCCl)nnc12
- T/C (dose: 3.13 mg/kg/injection, schedule: Q01DX009 (ip), vehicle: saline): 113 % of control
- T/C (dose: 6.25 mg/kg/injection, schedule: Q01DX009 (ip), vehicle: saline): 123 % of control
- T/C [6]: 309 % of control

Compound: O=C(O)C1(NO)CCCCC1
- T/C [20]: 95 % of control and 106 % of control
- T/C [17]: 101 % of control and 106 % of control
- T/C [14]: 100 % of control and 101 % of control
- T/C [15]: 102 % of control and 105 % of control
- T/C [18]: 95 % of control and 108 % of control
- T/C [16]: 97 % of control and 109 % of control

Compound: [N-]=[N+]=[N-]
- T/C (dose: 1.5 mg/kg/injection, schedule: Q01DX009 (ip), vehicle: saline): 96 % of control
- T/C (dose: 3.0 mg/kg/injection, schedule: Q01DX009 (ip), vehicle: saline): 98 % of control
- T/C (dose: 6.0 mg/kg/injection, schedule: Q01DX009 (ip), vehicle: saline): 106 % of control
- T/C (dose: 12.0 mg/kg/injection, schedule: Q01DX009 (ip), vehicle: saline): 95 % of control

Compound: Cc1ccc(NCCN(C)C)c2c(=O)c3cc(O)ccc3sc12
- T/C (dose: 12.0 mg/kg/injection, schedule: Q01DX009 (ip), vehicle: Klucel (hydroxypropylcellulose) (HPC)): 101 % of control
- T/C [20]: 103 % of control
- T/C [17]: 105 % of control and 121 % of control
- T/C [14]: 121 % of control and 123 % of control
- T/C [15]: 120 % of control and 232 % of control
- T/C [18]: 155 % of control

Compound: C=C(C)[C@@H]1CCc2c(O)c(O)c(=O)cc(C)c2C1
- T/C (dose: 3.12 mg/kg/injection, schedule: Q01DX009 (ip), vehicle: Klucel (hydroxypropylcellulose) (HPC)): 90 % of control
- T/C [19]: 92 % of control
- T/C [17]: 102 % of control
- T/C [14]: 97 % of control
- T/C [15]: 90 % of control

From PubChem BioAssay AID276 (DTP/NCI, 2004)
